Measured values as given in patent publication US9340577B2, “HLA binding motifs and peptides and their uses” (priority 1992, dated 2016).
No end group written: not given here.

How the values were obtained:
Experiment in all cases: biochemical
DRB1*1201 = DRB1*1201 (Homo sapiens, UniProt P01903+P01911, A100R/A169T/D57E/D86V/F55L/H45Y/K41T/L162R/M171V/P40S/Q125H/Q178H/Q39Y/Q99D/R42G/S66L/T262R/V114A/V67L/W38E/Y59H/Y61H/Y89S); format: binding
DRB1*1101 = DRB1*1101 (Homo sapiens, UniProt P01903+P01911, A100R/A169T/A87E/I96F/K41T/L162R/M171V/P40S/Q125H/Q178H/Q39Y/Q99D/R42S/S66Y/T262R/V115G/W38E)
Sequence of DRB1*1101 (P01903 26-254 limits assumed, other chains not shown): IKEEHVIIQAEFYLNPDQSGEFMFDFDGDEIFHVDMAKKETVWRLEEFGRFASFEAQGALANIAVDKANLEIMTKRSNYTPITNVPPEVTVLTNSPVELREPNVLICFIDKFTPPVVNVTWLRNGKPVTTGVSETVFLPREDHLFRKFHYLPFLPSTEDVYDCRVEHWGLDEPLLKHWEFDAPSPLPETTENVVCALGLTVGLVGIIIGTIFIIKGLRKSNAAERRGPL

DRB1*0802 = DRB1*0802 (Homo sapiens, UniProt P01903+P01911, A100R/A103L/A169T/F76Y/H45Y/I96F/K41T/L162R/M171V/P40S/Q125H/Q178H/Q39Y/Q99D/R218S/R42G/S66Y/V115G/W38E); format: binding
DRB3*0101 = DRB3*0101 (Homo sapiens, UniProt P01903+P79483); format: binding
DRB5*0101 = DRB5*0101 (Homo sapiens, UniProt P01903+Q30154)
DRB1*0901 = DRB1*0901 (Homo sapiens, UniProt P01903+P01911, A100R/A103E/D57H/D86V/F55Y/F60I/F76Y/I96F/K127E/L162R/M171V/P40D/Q125H/Q99R/R33Q/R42F/S133A/S66N/T210M/V115G/W38K/Y107V/Y59G/Y89S); format: binding
DR7 (DRB1*0701) = DR7 (DRB1*0701) (Homo sapiens, UniProt P01903+P01911, A100R/A102G/A103Q/D57E/D86V/E43K/F76Y/K127E/L162R/M171V/P40G/Q125H/Q99D/R33Q/R42Y/R54Q/S133A/S66F/T210M/V115G/Y107V/Y59L/Y89S); format: binding
DRB1*1501 = DRB1*1501 (Homo sapiens, UniProt P01903+P01911); format: binding
DRB1*1302 = DRB1*1302 (Homo sapiens, UniProt P01903+P01911, A100E/A169T/K41T/L162R/M171V/P40S/Q125H/Q178H/Q39Y/Q99D/R42S/S66N/T262R/V115G/W38E/Y61H); format: binding
Sequence of DRB1*1302 (P01903 26-254 limits assumed, other chains not shown): as above

DR1 (DRB1*0101) = DR1 (DRB1*0101) (Homo sapiens, UniProt P01903+P01911, A100R/D57E/F55L/F60I/F76Y/I96L/L162R/M171V/P40L/Q125E/R42F/V115G/Y59C); format: binding
DRB4*0101 = DRB4*0101 (Homo sapiens, UniProt P01903+P13762, G164S); format: binding
DRB1*0405 = DRB1*0405 (Homo sapiens, UniProt P01903+P01911, A100R/A169T/D86S/F76Y/I96L/K127E/L162R/M171V/N62H/P40V/Q125Y/R42H/S133A/S149N/S66Y/V115G/V209L/W38E); format: binding
DR4w4 (DRB1*0401) = DR4w4 (DRB1*0401) (Homo sapiens, UniProt P01903+P01911, A100K/A169T/F76Y/I96L/K127E/L162R/M171V/N62H/P40V/Q125Y/R42H/S133A/S149N/S66Y/V115G/V209L/W38E); format: binding
DRB1*0301 = DRB1*0301 (Homo sapiens, UniProt P01903+P01911, A100K/A102G/A103R/A169T/F55Y/I96L/K41T/L162R/M171V/P40S/Q125H/Q178H/Q39Y/R42S/S66N/T106N/T262R/W38E/Y61H); format: binding
Sequence of DRB1*0301 (P01903 26-254 limits assumed, other chains not shown): as above

Compound | IC50 (DRB1*1201) | IC50 (DRB1*1101; Binding affinity DRB1 *1101) | IC50 (DRB1*0802) | IC50 (DRB3*0101) | IC50 (DRB5*0101; Binding affinity DRB5 *0101) | IC50 (DRB1*0901) | IC50 (DR7 (DRB1*0701)) | IC50 (DRB1*1501) | IC50 (DRB1*1302) | IC50 (DR1 (DRB1*0101)) | IC50 (DRB4*0101) | IC50 (DRB1*0405) | IC50 (DRB1*1101; DRB1*1101) | IC50 (DRB5*0101; DRB5*0101) | IC50 (DR4w4 (DRB1*0401)) | IC50 (DRB1*0301)
CC[C@H](C)[C@H](NC(=O)[C@H](CO)NC(=O)[C@H](CC(C)C)NC(=O)[C@@H](NC(=O)[C@H](CC(C)C)NC(=O)[C@@H](N)CC(=O)O)C(C)C)C(=O)N[C@@H](C)C(=O)N[C@@H](CC(C)C)C(=O)N[C@@H](CO)C(=O)N[C@H](C(=O)NCC(=O)N[C@@H](CS)C(=O)N[C@H](C(=O)NCC(=O)N[C@@H](C)C(=O)O)[C@@H](C)O)C(C)C [Peptide 68.0002] | 4.92 µM | > 20 µM | > 20 µM | > 20 µM | > 20 µM |  |  |  |  |  |  |  |  |  |  | 
CC(C)C[C@H](NC(=O)[C@H](CCC(=O)O)NC(=O)[C@H](CCCCN)NC(=O)[C@H](C)NC(=O)[C@H](CC(C)C)NC(=O)[C@@H](NC(=O)[C@H](CO)NC(=O)[C@H](CCCNC(=N)N)NC(=O)[C@@H](N)CC(=O)O)C(C)C)C(=O)N[C@@H](CCCCN)C(=O)N[C@@H](Cc1ccccc1)C(=O)N[C@H](C(=O)N[C@H](C(=O)N[C@@H](CC(C)C)C(=O)N[C@H](C(=O)O)C(C)C)[C@@H](C)O)C(C)C [Peptide 68.0024] | 0.301 µM | > 20 µM |  | > 20 µM |  |  |  |  |  |  |  |  |  |  |  | 
CC[C@H](C)[C@H](NC(=O)CNC(=O)[C@H](Cc1ccc(O)cc1)NC(=O)[C@H](CC(C)C)NC(=O)[C@H](CO)NC(=O)[C@H](CC(C)C)NC(=O)[C@H](CC(C)C)NC(=O)[C@H](CO)NC(=O)[C@H](CC(C)C)NC(=O)[C@H](CCC(=O)O)NC(=O)[C@H](CO)NC(=O)[C@H](CC(C)C)NC(=O)[C@H](CCC(=O)O)NC(=O)[C@H](CCCNC(=N)N)NC(=O)[C@@H](N)CC(C)C)C(=O)O [Peptide 68.0043] |  |  |  | > 20 µM |  |  |  |  |  |  |  |  |  |  |  | 
CC[C@H](C)[C@H](NC(=O)[C@@H](NC(=O)[C@@H]1CCCN1C(=O)CNC(=O)[C@@H](NC(=O)[C@H](CC(C)C)NC(=O)[C@H](CCC(=O)O)NC(=O)[C@H](C)NC(=O)[C@@H](N)Cc1ccccc1)C(C)C)C(C)C)C(=O)N1CCC[C@H]1C(=O)N[C@@H](CCC(N)=O)C(=O)N[C@@H](CC(=O)O)C(=O)N[C@@H](Cc1c[nH]c2ccccc12)C(=O)N[C@@H](CO)C(=O)N[C@H](C(=O)O)[C@@H](C)O [Peptide 68.0056] |  | > 20 µM | > 20 µM | > 20 µM | > 20 µM | > 20 µM | > 20 µM | > 20 µM | > 20 µM |  |  |  |  |  |  | 
CC[C@H](C)[C@H](NC(=O)CNC(=O)[C@H](CCC(N)=O)NC(=O)[C@H](CC(C)C)NC(=O)[C@@H](NC(=O)CNC(=O)[C@H](CC(N)=O)NC(=O)[C@H](CS)NC(=O)[C@@H](NC(=O)[C@H](CC(C)C)NC(=O)[C@@H]1CCCN1C(=O)CNC(=O)CN)C(C)C)C(C)C)C(=O)N[C@H](C(=O)N[C@@H](CO)C(=O)O)[C@@H](C)O [Peptide 68.0079] |  |  |  | > 20 µM |  |  | > 20 µM | > 20 µM |  |  |  |  |  |  |  | 
CC[C@H](C)[C@H](NC(=O)[C@H](Cc1c[nH]cn1)NC(=O)[C@H](CCSC)NC(=O)[C@H](CCCCN)NC(=O)[C@@H](NC(=O)[C@H](CCCCN)NC(=O)[C@H](CCC(N)=O)NC(=O)[C@@H](NC(=O)[C@H](CO)NC(=O)[C@H](Cc1ccccc1)NC(=O)[C@H](CC(N)=O)NC(=O)CNC(=O)[C@@H](N)[C@@H](C)O)[C@@H](C)O)C(C)C)C(=O)N[C@@H](Cc1c[nH]cn1)C(=O)N[C@@H](CO)C(=O)O [Peptide 68.0105] |  |  |  | > 20 µM |  |  |  |  |  |  |  |  |  |  |  | 
CC(C)C[C@H](NC(=O)[C@H](CC(=O)O)NC(=O)[C@H](CCCCN)NC(=O)[C@H](Cc1ccccc1)NC(=O)[C@H](C)NC(=O)[C@H](Cc1ccccc1)NC(=O)[C@H](CCC(=O)O)NC(=O)[C@H](Cc1ccccc1)NC(=O)[C@@H](NC(=O)[C@@H](N)CCC(=O)O)C(C)C)C(=O)N[C@@H](Cc1ccccc1)C(=O)N[C@H](C(=O)N[C@H](C(=O)N[C@@H](Cc1ccc(O)cc1)C(=O)N[C@@H](CCCNC(=N)N)C(=O)O)C(C)C)C(C)C [Peptide 1543.35] |  |  |  | > 20 µM | > 20 µM | > 20 µM |  |  |  |  |  |  |  |  |  | 
CC[C@H](C)[C@H](NC(=O)[C@H](C)NC(=O)[C@H](CCCCN)NC(=O)[C@H](Cc1c[nH]cn1)NC(=O)[C@H](C)NC(=O)[C@H](CCCCN)NC(=O)[C@H](CO)NC(=O)[C@H](CCCCN)NC(=O)[C@H](CO)NC(=O)[C@@H](NC(=O)[C@H](CC(N)=O)NC(=O)[C@@H](NC(=O)[C@@H]1CCCN1)[C@@H](C)CC)[C@@H](C)CC)C(=O)N[C@@H](CCC(=O)O)C(=O)N[C@@H](CC(C)C)C(=O)O [Peptide 1601.30] |  |  |  | > 20 µM |  |  |  |  |  |  |  |  |  |  |  | 
ADKIYSISMKHPQEM [Peptide 68.0125] | 9.25 µM |  |  | > 20 µM | > 20 µM |  |  |  |  | > 20 µM |  |  |  |  |  | 
EISFAGIVTKLPTAN [Peptide 89.0174] |  | > 20 µM | 11.3 µM | 0.07 µM |  | > 20 µM | 7.8 µM | 8.14 µM |  | 18.7 µM | > 20 µM | > 20 µM |  |  |  | 
GIVEQTTTSITSLYQ [Peptide 9000.0054] |  |  |  | > 95.2 µM |  |  |  | 0.849 µM | 0.014 µM |  | 2.3 µM |  | > 10.5 µM | > 37.6 µM |  | 
HPLYNMSLLKHQSLR [Peptide 68.0008] | 0.095 µM |  |  | > 20 µM |  |  |  |  |  |  |  |  |  |  |  | 
LDHYENDSKDINSQI [Peptide 1601.29] |  | > 20 µM | > 20 µM | 2.05 µM | > 20 µM | > 20 µM | 19.9 µM | > 20 µM | > 20 µM | > 20 µM | 0.554 µM | > 20 µM |  |  | > 20 µM | 
LETIYNSQYSNEKWT [Peptide 1601.03] |  | > 20 µM | > 20 µM | > 20 µM | 0.208 µM | 6.1 µM | > 20 µM | 0.563 µM | 6.8 µM | 8.61 µM |  | 3 µM |  |  | 0.099 µM | 
NMSLLKHQSLRPDED [Peptide 68.0009] |  | > 20 µM | > 20 µM | > 20 µM | > 20 µM | > 20 µM | > 20 µM | > 20 µM | > 20 µM |  |  |  |  |  | > 20 µM | 
QWAYDNDIVDDSEIA [Peptide 90.0036] | > 20 µM | > 20 µM | > 20 µM |  | > 20 µM | > 20 µM | > 20 µM | > 20 µM | > 20 µM | > 20 µM | > 20 µM | 4.26 µM |  |  | 11.8 µM | 0.99 µM
RLTVAKLMSNLLSIP [Peptide 89.0065] | 0.107 µM | 0.062 µM | 0.483 µM |  | 0.498 µM | 0.994 µM | 0.045 µM | 0.0095 µM | 0.0072 µM | 0.0043 µM | 0.004 µM | 0.043 µM |  |  | 0.0062 µM | 4.15 µM
RVPVSHSFPHPLYNM [Peptide 68.0006] |  | > 20 µM | > 20 µM | > 20 µM |  |  |  |  |  |  |  |  |  |  | > 20 µM | 
TPEWIQRLTIIQHGI [Peptide 89.0030] | 0.418 µM | 0.389 µM | 0.374 µM |  | 5.89 µM | 2.43 µM | 0.155 µM | 17.6 µM | 0.413 µM | 0.669 µM | 0.0068 µM | 0.204 µM |  |  | 0.19 µM | > 20 µM
YIVMSDWTGGA [Peptide 510.33] |  |  |  | > 33.3 µM |  |  |  |  |  |  |  |  | > 6.67 µM | > 10 µM |  | 
